Measured values reported in patent publication US20150105252A1, “SUBSTITUTED PYRAZOLES AS HERBICIDES” (E I DU PONT DE NEMOURS AND COMPANY, priority 2013, published 2015).

Columns and labels:
pigweed [1] = assay: Test A preemergence; assay type: in vivo, Amaranthus retroflexus; details: preemergence
In short: (§1)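 Injury readout: eye-scored versus untreated controls, 0 to 100. Exposure period: ~10 days, greenhouse. Application: soil-directed spray over sown seed (pre) or spray on seedlings 2–10 cm tall with one or two leaves (post), compound carried in non-phytotoxic solvent including surfactant.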

pigweed [2] = assay: Test A postemergence; assay type: in vivo, Amaranthus retroflexus
In short: as §1

wheat [3] = assay: Test A postemergence; assay type: in vivo, Triticum aestivum
In short: as §1

barnyardgrass = assay: Test B flood; assay type: in vivo, Echinochloa crus-galli; details: 250 g ai/ha, visual rating on 0 to 100 scale (0 no effect, 100 complete control), 13 to 15 days
In short: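 At two leaves, seedlings received the test compound via the paddy water, pots having been flooded 3 cm over the soil surface and kept so. Greenhouse-held for 13 to 15 days, then judged by eye against controls on a scale running 0 (no effect) to 100 (complete control).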

blackgrass = assay: Test C preemergence; assay type: in vivo, Alopecurus myosuroides; details: for Plant response rating (scale of 0 to 100), Blackgrass: Preemergence, 250 g ai/ha
In short: (§2)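 Visual rating, 0–100 scale (0 no effect, 100 complete control), vs untreated controls after 13–15 d greenhouse. Pre: seeds in loam/sand, treated at sowing. Post: plants in peat-based mix, 1- to 4-leaf (2–18 cm). Solvent + surfactant formulation, non-phytotoxic.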

ryegrass, Italian = assay: Test C preemergence; assay type: in vivo, Lolium multiflorum; details: for Plant response rating (scale of 0 to 100), Ryegrass, Italian: Preemergence, 250 g ai/ha
In short: as §2

crabgrass, large = assay: Test C preemergence; assay type: in vivo, Digitaria sanguinalis; details: for Plant response rating (scale of 0 to 100), Crabgrass, Large: Preemergence, 250 g ai/ha
In short: as §2

foxtail, giant = assay: Test C preemergence; assay type: in vivo, Setaria faberii; details: for Plant response rating (scale of 0 to 100), Foxtail, Giant: Preemergence, 250 g ai/ha
In short: as §2

oilseed rape = assay: Test C preemergence; assay type: in vivo, Brassica napus; details: for Plant response rating (scale of 0 to 100), Oilseed Rape: Preemergence, 250 g ai/ha
In short: as §2

wheat [4] = assay: Test C postemergence; assay type: in vivo, Triticum aestivum; details: for Plant response rating (scale of 0 to 100 where 0 is no effect and 100 is complete control), Wheat: Postemergence, 31 g ai/ha, visually evaluated after 13 to 15 days; for Wheat plant response rating / Plant response rating, Wheat: postemergence; for Wheat plant response rating: 62 g ai/ha, scale 0 to 100
In short: as §2

galium = assay: Test C postemergence; assay type: in vivo, Galium aparine; details: for Plant response rating (scale of 0 to 100 where 0 is no effect and 100 is complete control), Galium: Postemergence, 31 g ai/ha, visually evaluated after 13 to 15 days; for Galium plant response rating / Plant response rating, Galium: postemergence; for Galium plant response rating: 62 g ai/ha, scale 0 to 100
In short: as §2

corn = assay: Test C postemergence; assay type: in vivo, Zea mays; details: for Plant response rating (scale of 0 to 100 where 0 is no effect and 100 is complete control), Corn: Postemergence, 31 g ai/ha, visually evaluated after 13 to 15 days; for Corn plant response rating / Plant response rating, Corn: postemergence; for Corn plant response rating: 62 g ai/ha, scale 0 to 100
In short: as §2

[5] = 125 g ai/ha, visual injury, 0 to 100 scale, approx. 10 days
[6] = 500 g ai/ha, visual injury after approx. 10 days, 0 to 100 scale (0 no effect, 100 complete control)
[7] = Postemergence, 500 g ai/ha, 0 to 100 scale (0 no effect, 100 complete control)
[8] = postemergence, 125 g ai/ha, about 10 days, visual rating on 0 to 100 scale (0 no effect, 100 complete control)
[9] = preemergence, 31 g ai/ha, visual rating, scale 0 to 100 (0 no effect, 100 complete control), 13 to 15 days
[10] = preemergence, 62 g ai/ha, scale 0 to 100 (0 no effect, 100 complete control), 13 to 15 days
[11] = preemergence, 125 g ai/ha, scale 0 to 100, 0 is no effect, 100 is complete control
[12] = 250 g ai/ha, scale 0 to 100 (0 no effect, 100 complete control)
[13] = 125 g ai/ha, scale 0 to 100, 0 no effect, 100 complete control
[14] = preemergence, 125 g ai/ha, 13 to 15 days, scale 0 to 100, 0 = no effect, 100 = complete control

SMILES	Pigweed plant response rating (pigweed [1]; [5])	Pigweed plant response rating (pigweed [1]; [6])	Pigweed plant response rating (pigweed [2]; [7])	Pigweed plant response rating (pigweed [2]; [8])	Wheat plant response rating (wheat [3]; [7])	Wheat plant response rating (wheat [3]; [8])	Plant response rating, Barnyardgrass (barnyardgrass)	Plant response rating (scale of 0 to 100), Blackgrass (blackgrass)	Blackgrass plant response rating (blackgrass; [9])	Blackgrass plant response rating (blackgrass; [10])	Plant response rating (scale of 0 to 100), Ryegrass, Italian (ryegrass, Italian)	Ryegrass, Italian plant response rating (ryegrass, Italian; [9])	Ryegrass, Italian plant response rating (ryegrass, Italian; [10])	Plant response rating (scale of 0 to 100), Crabgrass, Large (crabgrass, large)	Crabgrass, Large plant response rating (crabgrass, large; [9])	Crabgrass, Large plant response rating (crabgrass, large; [10])	Plant response rating (scale of 0 to 100), Foxtail, Giant (foxtail, giant)	Foxtail, Giant plant response rating (foxtail, giant; [9])	Foxtail, Giant plant response rating (foxtail, giant; [10])	Plant response rating (scale of 0 to 100), Oilseed Rape (oilseed rape)	other results
CCc1cc(C(=O)NOC(C)C)nn1Cc1ccnc(OC(F)F)c1 [Compound 126]	100	100	90	90	90	90	40	90	55	60	90	15	60	100	90	100	100	45	85	100	Blackgrass plant response rating (blackgrass; [11]): 90; Ryegrass, Italian plant response rating (ryegrass, Italian; [11]): 90; Crabgrass, Large plant response rating (crabgrass, large; [11]): 100; Foxtail, Giant plant response rating (foxtail, giant; [11]): 98; Oilseed Rape plant response rating (oilseed rape; [9]): 85; Oilseed Rape plant response rating (oilseed rape; [10]): 100; Oilseed Rape plant response rating (oilseed rape; [11]): 100; Plant response rating (scale of 0 to 100 where 0 is no effect and 100 is complete control), Wheat (wheat [4]): 5; Wheat plant response rating (wheat [4]): 5; Plant response rating, Wheat (wheat [4]; [12]): 5; Plant response rating, Wheat (wheat [4]; [13]): 5; Plant response rating (scale of 0 to 100 where 0 is no effect and 100 is complete control), Galium (galium): 50; Galium plant response rating (galium): 50; Plant response rating, Galium (galium; [12]): 70; Plant response rating, Galium (galium; [13]): 55; Plant response rating (scale of 0 to 100 where 0 is no effect and 100 is complete control), Corn (corn): 5; Corn plant response rating (corn): 10; Plant response rating, Corn (corn; [12]): 55; Plant response rating, Corn (corn; [13]): 35
CCCc1cc(C(=O)NCC(F)(F)F)nn1Cc1ccnc(OC(F)F)c1 [Compound 127]	90	100	90	90	90	80	70	85	20	60	80	25	60	100	80	100	98	98	100	100	Plant response rating, Blackgrass (blackgrass; [14]): 60; Plant response rating, Ryegrass, Italian (ryegrass, Italian; [14]): 80; Plant response rating, Crabgrass, Large (crabgrass, large; [14]): 100; Plant response rating, Foxtail, Giant (foxtail, giant; [14]): 100; Oilseed Rape plant response rating (oilseed rape; [9]): 85; Oilseed Rape plant response rating (oilseed rape; [10]): 100; Plant response rating, Oilseed Rape (oilseed rape; [14]): 100; Plant response rating (scale of 0 to 100 where 0 is no effect and 100 is complete control), Wheat (wheat [4]): 5; Wheat plant response rating (wheat [4]): 5; Plant response rating, Wheat (wheat [4]; [12]): 10; Plant response rating, Wheat (wheat [4]; [13]): 5; Plant response rating (scale of 0 to 100 where 0 is no effect and 100 is complete control), Galium (galium): 70; Galium plant response rating (galium): 70; Plant response rating, Galium (galium; [12]): 80; Plant response rating, Galium (galium; [13]): 70; Plant response rating (scale of 0 to 100 where 0 is no effect and 100 is complete control), Corn (corn): 5; Corn plant response rating (corn): 5; Plant response rating, Corn (corn; [12]): 25; Plant response rating, Corn (corn; [13]): 10
